The source made the active and inactive calls. The rule behind the calls is not given here.
Key:
[1] = Chemical stability of compound in pH 1.2 HCl buffer at 100 uM incubated for 24 hrs by HPLC analysis; format: physicochemical; settings: pH 1.2, 24 h
Mus musculus [2] = experiment: Anti-ulcerative colitis activity against oxazolone induced ulcerative colitis Balb/c mouse model assessed as prevention of body weight loss at 1.5 mg/kg, po bid incubated for 24 hrs; format: functional, organism-based
[3] = Prodrug conversion in Sprague-Dawley rat assessed as tofacitinib release at 22.5 mg/kg, po measured after 1 hr by HPLC analysis; format: ADME, organism-based; settings: in vivo
[4] = Ratio of prodrug conversion in BALB/c mouse intestine assessed as tofacitinib AUC(0 to 12 hrs) at 22.5 mg/kg, po to prodrug conversion in BALB/c mouse ileum assessed as tofacitinib AUC(0 to 12 hrs) at 22.5 mg/kg, po; format: ADME, organism-based; settings: in vivo
Mus musculus [5] = experiment: Anti-ulcerative colitis activity against BALB/c oxazolone-induced ulcerative colitis mouse model assessed as prevention of oxazolone-induced edema at 1.5 mg/kg, po by H and E staining based histopathological analysis; format: functional, organism-based
[6] = Prodrug conversion in BALB/c mouse jejunum assessed as tofacitinib AUC(0 to 12 hrs) at 22.5 mg/kg, po measured upto 12 hrs by LC-MS/MS analysis; format: ADME, organism-based; set-up: route oral, dose 22.5 mg/kg, time <=12; settings: in vivo
Mus musculus [7] = experiment: Anti-ulcerative colitis activity against BALB/c oxazolone-induced ulcerative colitis mouse model assessed as prevention of oxazolone-induced leukocyte infiltration at 1.5 mg/kg, po by H and E staining based histopathological analysis; format: functional, organism-based
Mus musculus [8] = experiment: Anti-ulcerative colitis activity against BALB/c mouse model of oxazolone-induced ulcerative colitis assessed as prevention of oxazolone-induced increase in colon density at 1.5 mg/kg, po bid measured after 4 days; format: functional, organism-based; settings: time 4.0 day
[9] = Prodrug conversion in Sprague-Dawley rat assessed as elimination half life of tofacitinib at 22.5 mg/kg, po measured up to 20 hrs by LC-MS/MS analysis; format: ADME, organism-based; settings: in vivo
[10] = Acute toxicity in Kunming mouse assessed as change in ALT level in liver at 2000 mg/kg, po measured for 7 days; format: organism-based; settings: in vivo, 168 h, time 7 day
Mus musculus [11] = experiment: Anti-ulcerative colitis activity against BALB/c oxazolone-induced ulcerative colitis mouse model assessed as prevention of oxazolone-induced increase in shortening of colon length at 1.5 mg/kg, po bid measured after 4 days; format: functional, organism-based; settings: time 4.0 day
Mus musculus [12] = experiment: Anti-ulcerative colitis activity against oxazolone-induced ulcerative colitis BALB/c mouse model assessed as improvement in spleen index at 1.5 mg/kg, po bid measured after 4 days; format: functional, organism-based; settings: time 4.0 day
[13] = Prodrug conversion in Sprague-Dawley rat assessed as Tmax of tofacitinib at 22.5 mg/kg, po measured up to 20 hrs by LC-MS/MS analysis; format: ADME, organism-based; settings: in vivo
[14] = Prodrug conversion in BALB/c mouse duodenum assessed as tofacitinib AUC(0 to 12 hrs) at 22.5 mg/kg, po measured upto 12 hrs by LC-MS/MS analysis; format: ADME, organism-based; set-up: route oral, dose 22.5 mg/kg, time <=12; settings: in vivo
[15] = Acute toxicity in Kunming mouse assessed as change in creatine level in kidney at 2000 mg/kg, po measured for 7 days; format: organism-based; settings: in vivo, 168 h, time 7 day
Mus musculus [16] = experiment: Anti-ulcerative colitis activity against BALB/c oxazolone-induced ulcerative colitis mouse model assessed as prevention of oxazolone-induced increase in colon weight at 1.5 mg/kg, po bid measured after 4 days; format: functional, organism-based; settings: time 4.0 day
Mus musculus [17] = experiment: Immunosuppressive activity in BALB/c mouse assessed as reduction in spleen index at 1.5 mg/kg, ig bid measured after 4 days by flow cytometry analysis; format: functional, organism-based; settings: time 4.0 day
[18] = Toxicity in Kunming mouse assessed as change in liver index at 2000 mg/kg, po measured for 7 days; format: organism-based; settings: in vivo, 168 h, time 7 day
[19] = Chemical stability in simulated gastric fluid assessed as parent compound remaining incubated for 12 hrs by LC-MS/MS analysis; format: ADME, physicochemical; settings: simulated gi fluid
Mus musculus [20] = experiment: Anti-ulcerative colitis activity against BALB/c oxazolone-induced ulcerative colitis mouse model assessed as preserved intestinal mucosal epithelial integrity at 1.5 mg/kg, po by H and E staining based histopathological analysis; format: functional, organism-based
[21] = Ratio of prodrug conversion in BALB/c mouse intestine assessed as tofacitinib AUC(0 to 12 hrs) at 22.5 mg/kg, po to prodrug conversion in BALB/c mouse duodenum assessed as tofacitinib AUC(0 to 12 hrs) at 22.5 mg/kg, po; format: ADME, organism-based; settings: in vivo
[22] = Prodrug conversion in BALB/c mouse ileum assessed as tofacitinib AUC(0 to 12 hrs) at 22.5 mg/kg, po measured upto 12 hrs by LC-MS/MS analysis; format: ADME, organism-based; set-up: route oral, dose 22.5 mg/kg, time <=12; settings: in vivo
[23] = Ratio of prodrug conversion in BALB/c mouse intestine assessed as tofacitinib AUC(0 to 12 hrs) at 22.5 mg/kg, po to prodrug conversion in BALB/c mouse jejunum assessed as tofacitinib AUC(0 to 12 hrs) at 22.5 mg/kg, po; format: ADME, organism-based; settings: in vivo
[24] = Toxicity in Kunming mouse assessed as change in spleen index at 2000 mg/kg, po measured for 7 days; format: organism-based; settings: in vivo, 168 h, time 7 day
[25] = Acute toxicity in Kunming mouse assessed as animal death at 2000 mg/kg, po measured for 7 days; format: organism-based; settings: in vivo, 168 h, time 7 day
[26] = Prodrug conversion in Sprague-Dawley rat assessed as AUC (0 to infinity) of tofacitinib at 22.5 mg/kg, po measured up to 20 hrs by LC-MS/MS analysis; format: ADME, organism-based; set-up: route oral, dose 22.5 mg/kg, time <=20; settings: in vivo
[27] = Prodrug conversion in Sprague-Dawley rat colon content suspension assessed as tofacitinib release measured upto 8 hrs by HPLC analysis; format: ADME, tissue-based
[28] = Toxicity in Kunming mouse assessed as change in kidney index at 2000 mg/kg, po measured for 7 days; format: organism-based; settings: in vivo, 168 h, time 7 day
Mus musculus [29] = experiment: Immunosuppressive activity in BALB/c mouse assessed as reduction in CD49+ NK cell count at 1.5 mg/kg, ig bid measured after 4 days by flow cytometry analysis; format: functional, organism-based; settings: time 4.0 day
Mus musculus [30] = experiment: Anti-ulcerative colitis activity against oxazolone induced ulcerative colitis BALB/c mouse model assessed as improved stool blood at 1.5 mg/kg, po bid measured after 36 hrs; format: functional, organism-based
[31] = Chemical stability of compound in pH 7.4 PBS buffer at 100 uM incubated for 24 hrs by HPLC analysis; format: physicochemical; settings: pH 7.4, 24 h
Mus musculus [32] = experiment: Anti-ulcerative colitis activity against oxazolone induced ulcerative colitis Balb/c mouse model assessed as prevention of body weight loss at 1.5 mg/kg, po bid measured after 36 hrs; format: functional, organism-based
[33] = Acute toxicity in Kunming mouse model assessed as increase in body weight at 2000 mg/kg, po measured for 7 days; format: organism-based; settings: in vivo, 168 h, time 7 day
[34] = Acute toxicity in Kunming mouse assessed as change in urea level in kidney at 2000 mg/kg, po measured for 7 days; format: organism-based; settings: in vivo, 168 h, time 7 day
[35] = Acute toxicity in Kunming mouse assessed as change in AST level in liver at 2000 mg/kg, po measured for 7 days; format: organism-based; settings: in vivo, 168 h, time 7 day
[36] = Prodrug conversion in Sprague-Dawley rat assessed as Cmax of tofacitinib at 22.5 mg/kg, po measured up to 20 hrs by LC-MS/MS analysis; format: ADME, organism-based; set-up: route oral, dose 22.5 mg/kg, time <=20; settings: in vivo
[37] = Prodrug conversion in BALB/c mouse colon assessed as tofacitinib AUC(0 to 12 hrs) at 22.5 mg/kg, po measured upto 12 hrs by LC-MS/MS analysis; format: ADME, organism-based; set-up: route oral, dose 22.5 mg/kg, time <=12; settings: in vivo
[38] = Chemical stability in simulated intestinal fluid assessed as parent compound remaining incubated for 12 hrs by LC-MS/MS analysis; format: ADME, physicochemical; settings: simulated gi fluid
[39] = Prodrug conversion in BALB/c mouse plasma assessed as tofacitinib AUC(0 to 12 hrs) at 22.5 mg/kg, po measured upto 12 hrs by LC-MS/MS analysis; format: ADME, organism-based; set-up: route oral, dose 22.5 mg/kg, time <=12; settings: in vivo
Mus musculus [40] = experiment: Anti-ulcerative colitis activity against oxazolone induced ulcerative colitis BALB/c mouse model assessed as improved stool consistency at 1.5 mg/kg, po bid measured after 36 hrs; format: functional, organism-based
[41] = Ratio of prodrug conversion in BALB/c mouse intestine assessed as tofacitinib AUC(0 to 12 hrs) at 22.5 mg/kg, po to prodrug conversion in BALB/c mouse colon assessed as tofacitinib AUC(0 to 12 hrs) at 22.5 mg/kg, po; format: ADME, organism-based; settings: in vivo
[42] = Chemical stability of compound in pH 4.5 PBS buffer at 100 uM incubated for 24 hrs by HPLC analysis; format: physicochemical; settings: pH 4.5, 24 h

## C[C@@H]1CCN(C(=O)CC#N)C[C@@H]1N(C)c1ncnc2c1ccn2C(=O)N(C)CCN(C)C(=O)OCc1ccc(/N=N/c2ccc(O)c(C(=O)O)c2)cc1Cl
[1]
  Stability: Stable
Mus musculus [2]
  Activity: Active
[3]
  Drug metabolism: Metabolite_Detected
[4]
  Ratio AUC: 7.1
Mus musculus [5]
  Activity: Active
[6]
  AUC: 193 µM·h
Mus musculus [7]
  Activity: Active
Mus musculus [8]
  Activity: Active
[9]
  beta t1/2: 3.09 h
[10]
  Activity: Non-Toxic
Mus musculus [11]
  Activity: Active
Mus musculus [12]
  Activity: Active
[13]
  Tmax: 8 h
[14]
  AUC: 99 µM·h
[15]
  Activity: Non-Toxic
Mus musculus [16]
  Activity: Active
Mus musculus [17]
  Activity: inactive
[18]
  Activity: Non-Toxic
[19]
  Stability: Stable
Mus musculus [20]
  Activity: Active
[21]
  Ratio AUC: 1.48
[22]
  AUC: 357 µM·h
[23]
  Ratio AUC: 4.49
[24]
  Activity: Non-Toxic
[25]
  Activity: Non-Toxic
[26]
  AUC: 19.27 µM·h
[27]
  Drug metabolism: 3.22 mmol/L/h
[28]
  Activity: Non-Toxic
Mus musculus [29]
  Activity: inactive
Mus musculus [30]
  Activity: Active
[31]
  Stability: Stable
Mus musculus [32]
  Activity: Active
[33]
  Activity: Non-Toxic
[34]
  Activity: Non-Toxic
[35]
  Activity: Non-Toxic
[36]
  Cmax: 2490 nM
[37]
  AUC: 1600 µM·h
[38]
  Stability: Stable
[39]
  AUC: 4.5 µM·h
Mus musculus [40]
  Activity: Active
[41]
  Ratio AUC: 9.61
[42]
  Stability: Stable

Reference: ChEMBL document CHEMBL5046297, “Discovery of a Colon-Targeted Azo Prodrug of Tofacitinib through the Establishment of Colon-Specific Delivery Systems Constructed by 5-ASA-PABA-MAC and 5-ASA-PABA-Diamine for the Treatment of Ulcerative Colitis” (J Med Chem, 2022)
